Data taken from patent US20250161238A1, “NMDAR Antagonists Prevent Ageing and Aging-Associated Conditions and Diseases Through Increasing 20S Proteasome Activity” (priority 2022, published 2025).

Assays:
[1] = test system: primary human fibroblast cells; assay: Nile red staining of lipid droplets in primary fibroblast cells; format: cell-based; settings: late passage
Excerpt: In another experiment, the amount of intracellular lipid droplets as indicator of fat metabolism were investigated in senescent cells with nile red staining in cells at the late passage. Nile red is a lipophilic stain which stain intracellular lipid droplets and proteins. Lipid droplets are highly dinamic cellular organelles involved in the storage and the metabolism of neutral lipids.

[2] = test system: primary human fibroblast cells; assay: SA β-gal staining of primary human fibroblast cells; format: cell-based; settings: passage 10
Excerpt: (§1) First, primary human fibroblast cells were divided into two as control and NMDAR added group at the 4th passage and followed under the same condution until the 10th passage.
Therefore cellular senescence were investigated by SA β-gal staining in cells at passage 10.

[3] = test system: primary human fibroblast cells; assay: MTT assay of primary human fibroblast cells; format: cell-based; settings: cells set up at passage 8
Excerpt: as §1
Cellular senescence is defined as a complete and irreversible loss of replicative capacity in primary somatic cells. (hayflick 1961). Therefore, MTT assay is used to measure cellular metabolic activity as an indicator of cell viability and proliferation in cells set up at passage 8.

proteasome [4] = biological target: T1, proteasome (Homo sapiens, UniProt P28072+P28074+Q99436); assay: In-Cell Fluorogenic Proteasome Assay, T98G; format: cell-based; design: endogenous in cells; host or cells: T98G (A10), digitonin/Tween-permeabilised whole cells; settings: whole T98G cell
T1 sequence (P28074 60-263): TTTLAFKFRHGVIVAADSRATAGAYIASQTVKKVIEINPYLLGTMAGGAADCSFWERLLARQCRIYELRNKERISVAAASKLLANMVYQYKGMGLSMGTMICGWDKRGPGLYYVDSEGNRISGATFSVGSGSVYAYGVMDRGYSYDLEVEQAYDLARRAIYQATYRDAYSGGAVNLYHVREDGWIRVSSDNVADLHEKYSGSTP
T1 sequence (Q99436 44-277): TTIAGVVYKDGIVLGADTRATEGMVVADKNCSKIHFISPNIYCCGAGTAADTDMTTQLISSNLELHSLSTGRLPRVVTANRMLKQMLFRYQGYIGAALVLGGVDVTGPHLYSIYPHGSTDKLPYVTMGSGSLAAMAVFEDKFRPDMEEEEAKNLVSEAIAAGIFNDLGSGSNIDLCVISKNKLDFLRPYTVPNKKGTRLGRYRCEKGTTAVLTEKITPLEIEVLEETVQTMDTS
T1 sequence (P28072 1-239): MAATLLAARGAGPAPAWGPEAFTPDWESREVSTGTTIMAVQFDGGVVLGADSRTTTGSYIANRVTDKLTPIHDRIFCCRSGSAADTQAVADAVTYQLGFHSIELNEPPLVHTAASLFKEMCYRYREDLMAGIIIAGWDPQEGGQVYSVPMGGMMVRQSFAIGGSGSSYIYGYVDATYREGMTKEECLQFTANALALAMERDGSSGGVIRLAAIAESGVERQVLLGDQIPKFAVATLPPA
Experimental: (§2) For a 96-well plate format, 8×10^3 cells per well were seeded. 24 hours later medium was changed with NMDAR blocker containing medium. Two hours later 100 μl of 2× flourescence cell buffer: (1 ml 1M tris hcl ph: 7.5, 500 μl 1M KCL, 200 μl […], 200 μl 0.1M MgCL2, 50 μl % 0.2 tween 20, 75 μl digitonin 20 mg/ml in DMSO ChemCruz cat no: sc-280675, 10 μl flourescence substrates including Suc-LLVY-AMC, Z-LLE-AMC, and Ac-RLR-AMC Ac-RLR-AMC, 8.1 ml H2O). After incubation at room temperature for a 5 minutes the flourescence of each sample were measured in a flourescence spectrometer (Biotek instrument-Synergy HT).

26S proteasome = biological target: T2, 26S proteasome (Homo sapiens, UniProt P28072+P28074+Q99436); assay: Proteasome activity assay with cell lysate and fluorogenic substrates; format: biochemical; settings: cell lysate
T2 construct: endogenous in cells; host or cells: crude cell lysate
T2 sequence (P28074 60-263): T1 sequence (P28074 60-263)
T2 sequence (Q99436 44-277): T1 sequence (Q99436 44-277)
T2 sequence (P28072 1-239): T1 sequence (P28072 1-239)
Experimental: The activity of the 26S proteasome was measured by following steps. Aliquots of 2×10^6 cells were lysed with glass beads (Sigma) at 4° C. in lysis buffer containing 50 mM Tris-HCl (pH 7.5), 5 mM MgCl2, 1 mM DTT and 250 mM sucrose, and the protein concentration of cleared supernatants was measured by BCA protein assay reagent (Pierce). Ten micrograms of total protein was diluted with 26S proteasome assay buffer in a 96-well microtiter plate (BD Falcon), and incubated with fluorogenic substrates including Suc-LLVY-AMC, Z-LLE-AMC, and Ac-RLR-AMC Ac-RLR-AMC (Cayman-U.S.A.) were used to measure chymotrypsin, caspase-, and trypsin-like proteasome activity, respectively. Fluorescence released by AMC fluorescence was monitored on a microplate fluorometer (Biotek instrument-synergy HT) every 5 min at 37° C. for 1 h.

proteasome [5] = biological target: T1, proteasome; assay: In-Cell Fluorogenic Proteasome Assay, HepG2; format: cell-based; design: endogenous in cells; host or cells: HepG2 (A9), T98G (A10), digitonin/Tween-permeabilised whole cells; settings: for trypsin, chemotrypsin and caspase-like proteasome activities: whole HepG2 cell
Experimental: as §2

| SMILES | Nile red flourescence (intracellular lipid droplets) [1] | SA β-gal stained cells, control cells compared to treated cells [2] | proliferation (MTT assay) [3] | trypsin, chemotrypsin and caspase-like proteasome activities (proteasome [4]) | trypsin, chemotrypsin and caspase-like proteasome activity (26S proteasome) | trypsin, chemotrypsin and caspase-like proteasome activities (proteasome [5]) | chemotrypsin activity of proteasome (proteasome [5]; whole cell, substance alone) | chemotrypsin activity of proteasome in the presence of RA190 (proteasome [5]; HepG2) |
| --- | --- | --- | --- | --- | --- | --- | --- | --- |
| CNC1(c2ccccc2Cl)CCCCC1=O (centres unmarked) [ketamin, 2-(2-chlorophenyl)-2-(methylamino)-cyclohexanone] | more flourescence | 2.6 fold | higher | increased | no effects | increased | depending on the amount of the drugs |  |
| CC12CC3CC(C)(C1)CC(N)(C3)C2 [memantine, 3,5-dimethyladamantan-1-amine] | more flourescence | 1.8 fold | higher | increased | no effects | increased |  | very similar to the ketamin results |
